Experimental data taken from patent US6743895B1, “Bone stimulating factor” (Osteopharm Inc., priority 1995, dated 2004).
No end group written: not given here.

Test system: rats
Test: Bone mineral apposition rate in intact rats after subcutaneous injection of polypeptide, tetracycline labelling
Format: in vivo, Sprague-Dawley rats
Settings: for Increase of bone apposition rate with respect to the control: non-N-terminus variants (Table Nineteen, FIG. 12); for Bone Apposition Rate, Mean: rats injected with non-N-terminus variants, SEQ ID NO:1 for comparison, lower metaphysis of right femur (Table Nineteen); for Bone stimulatory activity of substituted 10-amino acid polypeptides: rats about 300 grams, 100 nmoles s.c. per animal, N-terminus acetylated, C-terminus amidated, compared with family retaining full charge pattern
Procedure: Experiments were carried out on three groups of six rats weighing between 295 and 320 g. A 1 mg per ml solution of the modified peptide (SEQ ID NO:3) was prepared in 0.1% acetic acid. A 1 mg per ml solution of the normal peptide (SEQ ID NO:1) was prepared in 0.1% acetic acid. Each rat of a first of the groups had subcutaneously injected into its right thigh 0.1 ml of the modified peptide solution. Similarly, each rat of the second group was injected with 0.1 ml of the normal peptide solution. Each rat of the third group, the control group, was injected with 0.1 ml of 0.1% acetic acid solution. Immediately following these injections, each rat was injected intramuscularly with 24 mg per Kg body weight of tetracycline hydrochloride dissolved in 0.5 ml of water. A second dose of tetracycline hydrochloride was administered 48 hours later. The animals were sacrificed 24 hours after the second dose by CO2 narcosis. The lower metaphysis of the right femur was dissected out and fixed in a 10% aqueous solution of formaldehyde buffered at pH 7.2 by acetate buffer. Bone sections were prepared for measurement as described above.
Sprague-Dawley rats were used as test animals to determine bone mineral apposition rate, as described above. Male rats having weights between 280 and 380 g were subject to subcutaneous injection after one week of acclimatization. Each animal was injected with 200 μl of a 0.1% acetic acid test solution, solutions having been prepared at concentrations to obtain a dosage of about 25 nmol of polypeptide per animal. Each test dose was immediately followed by intramuscular injection of 24 mg per Kg of body weight of tetracycline hydrochloride. A second injection of tetracycline was made 48 hours later.
Bone mineral apposition rates were determined by measurements of the lower metaphysis of the right femur, as described previously. Results obtained in the two sets of experiments are summarized in Tables Seven and Eight and graphically depicted in FIGS. 8 and 9.
Bone mineral apposition rates were again determined by measurement of the lower metaphysis of the right femur. Results obtained are summarized in Table Nineteen and graphically depicted in FIG. 12. […]
In a final set of experiments, a polypeptide having the ninth amino acid, cysteine, replaced by the amino acid tyrosine, SEQ ID NO:43, was synthesized and tested for bone stimulatory activity. Four rats (about 300 grams) were each administered with 100 nmoles of material (in 400 μl 20 mM acetic acid solution) by subcutaneous injection along with tetracycline (5 mg per animal in 400 μl water), as described above. A second dosage of tetracycline was administered 48 hours later and the animals sacrificed 24 hours after that. The lower metaphysis of the right femur was examined to determine the bone mineral apposition rate. For comparison, experiments were performed using a control in which no compound was present in the acetic acid solution.

[1] = male Sprague-Dawley rats 280-380 g, about 25 nmol per animal s.c., first set (Table Seven)
[2] = about 25 nmol per animal s.c., second, separate set (Table Eight)

GIGKRTNEHTADCKIKPNTLHKKAA [SEQ ID NO:5]
Bone mineral apposition rate, Mean [1]: 1.35 μm per day

LHKKAAETLMVLD [SEQ ID NO:13]
Increase of bone apposition rate with respect to the control: none

LHKKAAETLMVLDQ [SEQ ID NO:12]
Increase of bone apposition rate with respect to the control: none

RTNEHTADCKI [SEQ ID NO:16]
Increase of bone apposition rate with respect to the control: none | Bone Apposition Rate, Mean: 1.02 μm/day

TADCKIKPNTLHKKAAETLMVLD [SEQ ID NO:14]
Increase of bone apposition rate with respect to the control: none | Bone Apposition Rate, Mean: 0.92 μm/day

GIGKRTNEHTADCKIKPNTL [SEQ ID NO:6]
Bone mineral apposition rate, Mean [1]: 1.37 μm per day

SEQ ID NO:45: third amino acid asparagine replaced by glutamine, eighth aspartic acid by glutaric acid, ninth cysteine by tyrosine (as printed) (Ac-RTQEHTAEYK; not fully specified; also: position 8 stated as glutaric acid replacing Asp, X10 not defined)
Mean Bone Apposition Rate (approximately 500 gm male Sprague-Dawley rats, 300 nmol/kg bodyweight (Table Twenty-Two)): 1.77 μm/day

GIGKRTNEHTADCK [SEQ ID NO:8]
Bone mineral apposition rate, Mean [2]: 2.09 μm/d

SEQ ID NO:37: SEQ ID NO:24 sequence with one amino acid having a charged side chain substituted by alanine; acetylated, amidated (Ac-RTNEHTAACK-NH2)
Bone stimulatory activity of substituted 10-amino acid polypeptides: lack or to exhibit substantially less bone stimulatory activity

GIGKRTNEHTADAKIKPNTLHKKAAETLMVLDQNQP [SEQ ID NO:3]
Bone mineral apposition rate, Mean (rats 295-320 g, 0.1 ml of 1 mg per ml solution s.c., lower metaphysis of right femur (Table Six)): 1.35 μm/d

RTNEHTADCKIKPNTLHKKAAETLMVLDQN [SEQ ID NO:15]
Increase of bone apposition rate with respect to the control: none | Bone Apposition Rate, Mean: 0.92 μm/day

LHKKAAETLMVLDQNQ [SEQ ID NO:10]
Increase of bone apposition rate with respect to the control: none

SEQ ID NO:34: SEQ ID NO:24 sequence with one amino acid having a charged side chain substituted by alanine; acetylated, amidated (Ac-ATNEHTADCK-NH2)
Bone stimulatory activity of substituted 10-amino acid polypeptides: lack or to exhibit substantially less bone stimulatory activity

SEQ ID NO:36: SEQ ID NO:24 sequence with one amino acid having a charged side chain substituted by alanine; acetylated, amidated (Ac-RTNEATADCK-NH2)
Bone stimulatory activity of substituted 10-amino acid polypeptides: lack or to exhibit substantially less bone stimulatory activity

GIGKRTNEHTADCKIKPNTLHKKAAETLMV [SEQ ID NO:4]
Bone mineral apposition rate, Mean [1]: 1.31 μm per day

LHKKAAETLMVLDQN [SEQ ID NO:11]
Increase of bone apposition rate with respect to the control: none

Arg Thr Asn Glu His Thr Ala Asp Cys Lys (Ac-RTNEHTADCK-NH2) [SEQ ID NO:9]
Bone mineral apposition rate, Mean [2]: 2.83 μm/d | Mean Bone Apposition Rate (about 125 nmoles of polypeptide per Kg of body weight (Table Twenty)): 2.11 μm/day

SEQ ID NO:38: SEQ ID NO:24 sequence with one amino acid having a charged side chain substituted by alanine; acetylated, amidated (Ac-RTNEHTADCA-NH2)
Bone stimulatory activity of substituted 10-amino acid polypeptides: lack or to exhibit substantially less bone stimulatory activity
